Reference: PubChem BioAssay (NCI)
“And” between values parts separate entries of the source, which are not always exact repeats. Equal entries are not always repeated.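 Interpolation was linear, between the two tested concentrations surrounding the appropriate level; five concentrations were tested over 48 hours in 96-well plates. Abbreviation: GI50, concentration required for 50% inhibition of growth. TGI marks complete inhibition of growth.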

How the values were obtained:
Experiment in all cases: growth of human tumour cells (NCI), 48 h
RXF 393 renal = test system: RXF 393 renal
U251 CNS = test system: U251 CNS
SN12C renal = test system: SN12C renal
K-562 leukemia = test system: K-562 leukemia
MALME-3M melanoma = test system: MALME-3M melanoma
SNB-19 CNS = test system: SNB-19 CNS
SF-295 CNS = test system: SF-295 CNS
NCI-H23 lung = test system: NCI-H23 lung
MDA-MB-435 = test system: MDA-MB-435
UACC-62 melanoma = test system: UACC-62 melanoma

SMILES | TGI (RXF 393 renal) | TGI (U251 CNS) | TGI (SN12C renal) | TGI (K-562 leukemia) | TGI (MALME-3M melanoma) | TGI (SNB-19 CNS) | TGI (SF-295 CNS) | TGI (NCI-H23 lung) | TGI (MDA-MB-435) | TGI (UACC-62 melanoma) | GI50 (RXF 393 renal) [µM] | GI50 (U251 CNS) [µM] | GI50 (SN12C renal) [µM] | GI50 (K-562 leukemia) [µM] | GI50 (MALME-3M melanoma) [µM] | GI50 (SNB-19 CNS) [µM] | GI50 (SF-295 CNS) [µM] | GI50 (NCI-H23 lung) [µM] | GI50 (MDA-MB-435) [µM] | GI50 (UACC-62 melanoma) [µM]
CC(=O)OC1CCC2C3CCc4c(C)ccc(OS(=O)(=O)c5ccccc5)c4C3CCC12C (stereo not given) | 94.4 µM | > 100 µM | > 100 µM | > 100 µM | > 100 µM | > 100 µM | > 100 µM | > 100 µM | > 100 µM | > 100 µM | – | – | – | – | – | – | – | – | – | –
CC(=O)c1cnc2oc3ccc(O)cc3c2c1-c1ccccc1 | > 100 µM | > 100 µM | > 100 µM | > 100 µM | 81.2 µM | > 100 µM | > 100 µM | > 100 µM | > 100 µM | 70.4 µM | – | – | – | – | – | – | – | – | – | –
O=C(c1ccncc1)C1C(=O)c2ccccc2C1C1(O)c2ccccc2CC1C(O)c1ccncc1 (stereo not given) | > 100 µM | > 100 µM | > 100 µM | > 100 µM | > 100 µM | > 100 µM | > 100 µM | > 100 µM | 47.9 µM | 48.7 µM | – | – | – | – | – | – | – | – | – | –
[O-]/[N+](=C\c1ccccc1OC(=S)S)c1ccc(Cl)cc1 | > 100 µM | > 100 µM | 97.8 µM | > 100 µM | > 100 µM | > 100 µM | > 100 µM | > 100 µM | 47.3 µM | > 100 µM | – | – | – | – | – | – | – | – | – | –
Cc1c2c(OCC3CCCCO3)nn(C)c(=O)c2c(C)n1-c1ccccc1 (stereo not given) | 34.3 µM | 31.2 µM | 40.6 µM | > 100 µM | 33.1 µM | 46.8 µM | 31.4 µM | 44.2 µM | 37.4 µM | 31 µM | – | – | – | – | – | – | – | – | – | –
CC(=O)c1ccc2c(c1)CC1(C2)Cc2ccccc2C1=O (stereo not given) | > 100 µM | > 100 µM | > 100 µM | > 100 µM | > 100 µM | > 100 µM | > 100 µM | > 100 µM | > 100 µM | > 100 µM | – | – | – | – | – | – | – | – | – | –
CC(C)OC(=O)OCSc1ccccc1N=Cc1cccc([N+](=O)[O-])c1 | > 10 µM | > 10 µM | > 10 µM | > 10 µM | > 10 µM | > 10 µM | > 10 µM | > 10 µM | > 10 µM | > 10 µM | – | – | – | – | – | – | – | – | – | –
N#Cc1c(-c2ccccc2)cc(-c2ccc(Cl)cc2)[nH]c1=S | > 100 µM | 48.5 µM | > 100 µM | > 100 µM | > 100 µM | > 100 µM | 83.7 µM | 38.2 µM | 43.1 µM | 92.1 µM | – | – | – | – | – | – | – | – | – | –
CCOC(=O)c1cn2c(n1)sc1cc(Cl)cc(Cl)c12 | > 100 µM | > 100 µM | > 100 µM | > 100 µM | > 100 µM | > 100 µM | > 100 µM | > 100 µM | > 100 µM | > 100 µM | – | – | – | – | – | – | – | – | – | –
C=C(CN(C)C)C(=O)c1ccccc1[N+](=O)[O-] | 30.2 µM and 4.32 µM | 54.5 µM and 31.8 µM | 32.6 µM and 24.7 µM | 27.7 µM and 12.9 µM | 20.2 µM and 21.1 µM | > 68.2 µM and 47.7 µM | 50.7 µM and 32.9 µM | 32.7 µM and 66.1 µM | 29.7 µM and 15.9 µM | 32.9 µM and 31.1 µM | 1.99 | 17.8 | 3.74 | 3.38 | 4.74 | 23.3 | 17.7 | 20.7 | 3.86 | 13.1
O=C(Nc1noc(-c2ccccc2)n1)c1ccccc1CNc1noc(-c2ccccc2)n1 | > 100 µM | > 100 µM | > 100 µM | > 100 µM | > 100 µM | > 100 µM | > 100 µM | > 100 µM | > 100 µM | > 100 µM | – | – | – | – | – | – | – | – | – | –
S=c1cc(-c2ccc3c(c2)OCO3)s[nH]1 | > 100 µM | > 100 µM | > 100 µM | > 100 µM | > 100 µM | > 100 µM | > 100 µM | > 100 µM | > 100 µM | > 100 µM | – | – | – | – | – | – | – | – | – | –
CCOC(=O)/C=C(\C(=O)OCC)n1ccc(=O)n(Cc2cn(COCCOC(C)=O)nn2)c1=O | 38.4 µM | 36.7 µM | 41.8 µM | > 100 µM | 30.6 µM | > 89.5 µM | > 100 µM | 32.6 µM | 37 µM | 38.6 µM | – | – | – | – | – | – | – | – | – | –
COC(=O)[C@H](Cc1ccccc1)NC(=O)CCCCCCC(=O)NO | 32.3 µM | 87.5 µM | > 100 µM | > 100 µM | 38.6 µM | > 100 µM | 44.6 µM | > 100 µM | 63.8 µM | 46.8 µM | – | – | – | – | – | – | – | – | – | –
COc1ccc(-c2cc(-c3ccccc3)[nH]c(=S)c2C#N)cc1 | > 100 µM | 54.4 µM | > 100 µM | > 100 µM | > 100 µM | > 100 µM | > 100 µM | 52.3 µM | 42.8 µM | 46.2 µM | – | – | – | – | – | – | – | – | – | –
COc1cc(/C=C/C=C2\CC/C(=C\C=C\c3ccc(O)c(OC)c3)C2=O)ccc1O | 77.7 µM | > 100 µM | > 100 µM | 52.7 µM | > 100 µM | > 100 µM | > 100 µM | > 100 µM | > 100 µM | > 100 µM | – | – | – | – | – | – | – | – | – | –
COc1ccc(NC(=S)NC(=O)c2ccc3c(c2)Sc2ccccc2O3)c([N+](=O)[O-])c1 | 75.6 µM | 60.6 µM | > 100 µM | > 100 µM | 35.7 µM | 83.6 µM | > 100 µM | > 100 µM | > 100 µM | > 100 µM | – | – | – | – | – | – | – | – | – | –
O=[N+]([O-])c1ccc2c(c1)C1=NN(c3ccccc3)C(c3ccccc3Br)C1CCC2 (stereo not given) | 43 µM | > 50 µM | > 50 µM | > 50 µM | > 50 µM | > 50 µM | > 50 µM | > 50 µM | > 50 µM | 34.4 µM | – | – | – | – | – | – | – | – | – | –
